# Test system: MELOE-1 specific CD4 T cell clones
# Test: Recognition of autologous DC loaded with antigen by CD4 T cell clones (TNF-α)
# Assay type: cell-based, human
# Protocol: FIG. 4: Class II epitopes are naturally processed from MELOE-1 whole antigen. Autologous DC, were loaded (before or after fixation) with MELOE-12-46 (1 μM) or, as a negative control, with Melan-A16-40L peptide (1 μM), and matured. T cell clones were then stimulated with DC at a ratio 1:1, during 5 h in presence of Brefeldin A, then stained with APC-conjugated anti-CD3 mAb, fixed with 4% paraformaldehyde, labeled with PE-conjugated anti-TNF-α mAb and analyzed by flow cytometry. Histograms illustrated the % of TNF-α producing cells among CD3 positive T cells.
# Dendritic Cells Generation and Loading Monocytes were purified from PBMC of healthy donors by a CD14-enrichment kit, according the recommendations of the supplier (Stem Cell, France). Immature dendritic cells (iDC) were generated by culturing monocytes in RPMI supplemented with 20 mg/mL of human albumin, 1000 IU/mL of GM-CSF and 200 IU/mL of IL-4 for 5 days. Then, iDC were pulsed with the whole MELOE-1 (1 μM) protein or the modified Melan-A16-40 A27L as negative control (1 μM) and matured with 20 ng/mL of TNF-α and 50 μg/mL of PolyI:C for 4 hours at 37° C. Finally they were fixed for 1 minute with PBS/0.015% glutaraldehyde. Alternatively, iDC were first matured, fixed and then pulsed with antigens at the same concentration. […]
sequence,measurement,setting,value
MSCVGYPDEATSREQFLPSEGAACPPWHPSERISSTLNDECWPASL [MELOE-1],recognition by specific CD4 T cell clones of loaded autologous DC,DC loaded after DC fixation,only a weak recognition
same,reactivity of the four CD4 T cell clones against loaded autologous DC,"iDC loaded with 1 μM in serum-free medium, matured, then fixed",reactive

# — patent US9573975B2, “Melanoma antigen peptide and uses thereof” (INSERM (INSTITUT NATIONAL DE LA SANTE ET DE LA RECHERCHE …, priority 2012, dated 2017)
